This note sets out measurements from ChEMBL document CHEMBL4017483, “Potent and selective oxytocin receptor agonists without disulfide bridges” (Bioorg Med Chem Lett, 2017).

Experiment [1] is filed under the species Homo sapiens. Description: Selectivity ratio of EC50 for human V1a receptor to EC50 for human OTR.
A further experiment has as its target T1, Oxytocin receptor (Homo sapiens, UniProt P30559).
T1 sequence (P30559 whole entry): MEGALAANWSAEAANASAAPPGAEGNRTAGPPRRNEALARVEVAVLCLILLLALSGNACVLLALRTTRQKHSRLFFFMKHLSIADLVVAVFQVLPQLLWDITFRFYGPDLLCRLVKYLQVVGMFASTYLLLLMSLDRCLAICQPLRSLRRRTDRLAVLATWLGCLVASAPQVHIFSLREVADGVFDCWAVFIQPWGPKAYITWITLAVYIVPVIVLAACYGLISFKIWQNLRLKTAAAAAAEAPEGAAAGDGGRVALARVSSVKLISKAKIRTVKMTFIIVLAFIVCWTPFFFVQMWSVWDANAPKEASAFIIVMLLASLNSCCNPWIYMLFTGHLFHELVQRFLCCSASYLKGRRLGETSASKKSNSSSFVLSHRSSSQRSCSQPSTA
Description: Agonist activity at human OTR expressed in CHO cells assessed as calcium mobilization measured after 30 mins by Fluo-4-AM dye based FLIPR assay. Type of experiment: functional, cell-based.

The target in another experiment is Vasopressin V1a receptor (Homo sapiens, UniProt P37288). Description: Agonist activity at human V1a receptor expressed in CHO cells assessed as calcium mobilization measured after 30 mins by Fluo-4-AM dye based FLIPR assay. Type of experiment: cell-based. Background: Calcium assays in cells follow changes in intracellular calcium, usually with a dye or a luminescent sensor.
Sequence of Vasopressin V1a receptor (P37288 whole entry): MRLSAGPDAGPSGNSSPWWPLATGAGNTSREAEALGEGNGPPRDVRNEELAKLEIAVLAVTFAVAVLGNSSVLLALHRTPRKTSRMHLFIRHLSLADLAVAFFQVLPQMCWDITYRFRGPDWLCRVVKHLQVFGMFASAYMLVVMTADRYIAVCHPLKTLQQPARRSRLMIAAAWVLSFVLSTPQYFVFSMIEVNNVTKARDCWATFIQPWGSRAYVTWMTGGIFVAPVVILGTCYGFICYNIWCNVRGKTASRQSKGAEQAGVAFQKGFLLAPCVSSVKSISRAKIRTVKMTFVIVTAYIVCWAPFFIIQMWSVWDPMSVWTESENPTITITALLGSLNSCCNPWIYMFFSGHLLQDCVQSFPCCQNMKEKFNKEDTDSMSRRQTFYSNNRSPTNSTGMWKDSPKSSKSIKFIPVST

Experiment [2] is filed under the species Homo sapiens. Briefly: Selectivity ratio of EC50 for human V1b receptor to EC50 for human OTR.
In a further experiment the target is T2, Vasopressin V1b receptor (Homo sapiens, UniProt P47901).
T2 sequence (P47901 whole entry): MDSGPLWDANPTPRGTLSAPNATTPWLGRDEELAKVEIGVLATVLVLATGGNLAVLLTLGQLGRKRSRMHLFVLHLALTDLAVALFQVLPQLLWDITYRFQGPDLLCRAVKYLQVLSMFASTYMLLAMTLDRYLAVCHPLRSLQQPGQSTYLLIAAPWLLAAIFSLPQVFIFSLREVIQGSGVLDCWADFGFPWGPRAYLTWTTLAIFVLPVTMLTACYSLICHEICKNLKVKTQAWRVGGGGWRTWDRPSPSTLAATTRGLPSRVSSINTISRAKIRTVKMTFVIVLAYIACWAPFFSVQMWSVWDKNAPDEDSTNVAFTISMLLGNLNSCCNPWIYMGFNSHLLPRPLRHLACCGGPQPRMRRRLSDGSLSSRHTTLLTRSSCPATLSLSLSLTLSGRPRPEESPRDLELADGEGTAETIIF
Description: Agonist activity at human V1b receptor expressed in CHO cells assessed as calcium mobilization measured after 30 mins by Fluo-4-AM dye based FLIPR assay. Type of experiment: cell-based.

The structures appear in SMILES notation. Bridge positions count the residues as written; N and C are the ends. Square brackets hold non-standard residues; d marks the D form. Peptide text beside a SMILES is read from it. NMeS = CN[C@@H](CO)C(=O)O; NMeA = CN[C@@H](C)C(=O)O; βAla = NCCC(=O)O; Mpa = O=C(O)CCS; Sar = CNCC(=O)O

By EC50 is commonly meant the concentration giving half of the maximal effect. As to `CC[C@H](C)[C@@H]1NC(=O)[C@H](Cc2ccc(O)cc2)NC(=O)CCSSC[C@@H](C(=O)N[C@@H](CCCNC(=N)N)C(=O)N[C@@H](CC(C)C)C(=O)NCC(N)=O)NC(=O)[C@H](CC(N)=O)NC(=O)[C@H](CCC(N)=O)NC1=O` ([Mpa]YIQNCRLG-NH2; disulfide 1-6), the Ratio EC50 in the experiment filed under Homo sapiens [1] and in the experiment listed under Homo sapiens [2] was over 10 each time. Moreover, the figures for the EC50 on Oxytocin receptor, at Vasopressin V1a receptor and at Vasopressin V1b receptor were 1.5 nM, over 100 nM and over 100 nM, respectively.

With `CC[C@H](C)[C@@H]1NC(=O)[C@H](Cc2ccc(O)cc2)NC(=O)CCSSC[C@@H](C(=O)N[C@@H](CO)C(=O)N[C@@H](CC(C)C)C(=O)NCC(N)=O)NC(=O)[C@H](CC(N)=O)NC(=O)[C@H](CCC(N)=O)NC1=O` ([Mpa]YIQNCSLG-NH2; disulfide 1-6), the Ratio EC50 in the experiment listed under Homo sapiens [1] and in the experiment filed under Homo sapiens [2] was over 1000 throughout. In addition, the EC50 on Oxytocin receptor is 0.082 nM; on Vasopressin V1a receptor it was over 100 nM; at Vasopressin V1b receptor it was over 100 nM.

On to `CC[C@H](C)[C@@H]1NC(=O)[C@H](Cc2ccc(O)cc2)NC(=O)CCSSC[C@@H](C(=O)N(C)[C@@H](C)C(=O)N[C@@H](CC(C)C)C(=O)NCC(N)=O)NC(=O)[C@H](CC(N)=O)NC(=O)[C@H](CCC(N)=O)NC1=O` ([Mpa]YIQNC[NMeA]LG-NH2; disulfide 1-6), for which the Ratio EC50 in the experiment listed under Homo sapiens [1] and in the experiment filed under Homo sapiens [2] was over 100 throughout. Further, the values for the EC50 at Oxytocin receptor, at Vasopressin V1a receptor and on Vasopressin V1b receptor were 0.11 nM, over 100 nM and over 100 nM, respectively.

`CC[C@H](C)[C@@H]1NC(=O)[C@H](Cc2ccc(O)cc2)NC(=O)CCSSC[C@@H](C(=O)N(C)[C@@H](CO)C(=O)N[C@@H](CC(C)C)C(=O)NCC(N)=O)NC(=O)[C@H](CC(N)=O)NC(=O)[C@H](CCC(N)=O)NC1=O` ([Mpa]YIQNC[NMeS]LG-NH2; disulfide 1-6): the Ratio EC50 in the experiment filed under Homo sapiens [1] and in the experiment listed under Homo sapiens [2] was over 1000 each time. Also, the results for the concentration giving a half-maximal response (EC50) on Oxytocin receptor, on Vasopressin V1a receptor and on Vasopressin V1b receptor were 0.042 nM, over 100 nM and over 100 nM, respectively.

With `CC[C@H](C)[C@@H]1NC(=O)[C@H](Cc2ccc(O)cc2)NC(=O)CCSSC[C@@H](C(=O)N(C)CC(=O)N[C@@H](CC(C)C)C(=O)NCC(N)=O)NC(=O)[C@H](CC(N)=O)NC(=O)[C@H](CCC(N)=O)NC1=O` ([Mpa]YIQNC[Sar]LG-NH2; disulfide 1-6), the Ratio EC50 in the experiment filed under Homo sapiens [1] and in the experiment listed under Homo sapiens [2] was over 10000 throughout. For the same molecule, the concentration giving a half-maximal response (EC50) at Oxytocin receptor is 0.0069 nM; on Vasopressin V1a receptor, over 100 nM; at Vasopressin V1b receptor it was over 100 nM.

Consider `CC[C@H](C)[C@@H]1NC(=O)[C@H](Cc2ccc(O)cc2)NC(=O)CCSSC[C@@H](C(=O)N2CCC[C@H]2C(=O)N[C@@H](CC(C)C)C(=O)NCC(N)=O)NC(=O)[C@H](CO)NC(=O)[C@H](CCC(N)=O)NC1=O` ([Mpa]YIQSCPLG-NH2; disulfide 1-6), for which the Ratio EC50 in the experiment listed under Homo sapiens [1] and in the experiment listed under Homo sapiens [2] was over 8 throughout. Further, the EC50 is 12 nM at Oxytocin receptor, over 100 nM on Vasopressin V1a receptor and over 100 nM on Vasopressin V1b receptor.

For `CC[C@H](C)[C@@H]1NC(=O)[C@H](Cc2ccc(O)cc2)NC(=O)CCSSC[C@@H](C(=O)N2CCC[C@H]2C(=O)N[C@@H](CC(C)C)C(=O)NCC(N)=O)NC(=O)[C@H](CC(N)=O)NC(=O)[C@H](CCCNC(=N)N)NC1=O` ([Mpa]YIRNCPLG-NH2; disulfide 1-6), the Ratio EC50 in the experiment filed under Homo sapiens [1] is over 10; in the experiment listed under Homo sapiens [2], 7.5. In addition, the EC50 on Oxytocin receptor is 1.2 nM; on Vasopressin V1a receptor, over 100 nM; at Vasopressin V1b receptor, 9 nM.

On to `CC[C@H](C)[C@@H]1NC(=O)[C@H](Cc2ccc(O)cc2)NC(=O)CCSSC[C@@H](C(=O)N2CCC[C@H]2C(=O)N[C@@H](CC(C)C)C(=O)NCC(N)=O)NC(=O)[C@H](CC(N)=O)NC(=O)[C@H](CO)NC1=O` ([Mpa]YISNCPLG-NH2; disulfide 1-6), for which the Ratio EC50 in the experiment listed under Homo sapiens [1] is over 1000; in the experiment filed under Homo sapiens [2] it was 120. Moreover, the EC50 was 0.072 nM on Oxytocin receptor, over 100 nM at Vasopressin V1a receptor and 8.9 nM at Vasopressin V1b receptor.

Turning to `CC(C)C[C@@H]1NC(=O)[C@H](Cc2ccc(O)cc2)NC(=O)CCSSC[C@@H](C(=O)N2CCC[C@H]2C(=O)N[C@@H](CC(C)C)C(=O)NCC(N)=O)NC(=O)[C@H](CC(N)=O)NC(=O)[C@H](CCC(N)=O)NC1=O` ([Mpa]YLQNCPLG-NH2; disulfide 1-6), the Ratio EC50 in the experiment filed under Homo sapiens [1] is over 100; in the experiment listed under Homo sapiens [2], 21. For the same molecule, the concentration for a half-maximal effect (EC50) was 0.19 nM on Oxytocin receptor, over 100 nM at Vasopressin V1a receptor and 3.9 nM on Vasopressin V1b receptor.

`CC(C)C[C@H](NC(=O)[C@@H]1CCCN1C(=O)[C@@H]1CSSCCC(=O)N[C@@H](Cc2ccc(O)cc2)C(=O)N[C@@H](CO)C(=O)N[C@@H](CCC(N)=O)C(=O)N[C@@H](CC(N)=O)C(=O)N1)C(=O)NCC(N)=O` ([Mpa]YSQNCPLG-NH2; disulfide 1-6): the Ratio EC50 in the experiment filed under Homo sapiens [1] and in the experiment listed under Homo sapiens [2] was over 2 each time. In addition, the EC50 at Oxytocin receptor is 40 nM; on Vasopressin V1a receptor, over 100 nM; on Vasopressin V1b receptor, over 100 nM.

As for `CC[C@H](C)[C@@H]1NC(=O)[C@H](Cc2ccc(O)cc2)NC(=O)CCNC(=O)C[C@@H](C(=O)N2CCC[C@H]2C(=O)N[C@@H](CC(C)C)C(=O)NCC(N)=O)NC(=O)[C@H](CC(N)=O)NC(=O)[C@H](CCC(N)=O)NC1=O` ([βAla]YIQNDPLG-NH2; lactam N-6), the Ratio EC50 in the experiment listed under Homo sapiens [1] and in the experiment listed under Homo sapiens [2] was over 7.7 in each case. The concentration giving a half-maximal response (EC50) on Oxytocin receptor was 13 nM; on Vasopressin V1a receptor it was over 100 nM; on Vasopressin V1b receptor, over 100 nM.
